This is an account of results in US20160222014A1, “COMPOUNDS FOR REGULATING FAK AND/OR SRC PATHWAYS” (ASANA BIOSCIENCES, LLC, priority 2013, published 2016).

Each structure is given as a SMILES string. Where only a bound is given, the exact number is not on record here.

The target of the assay is T1, recombinant human FAK1 (Homo sapiens, UniProt Q05397).
T1 construct: fused on or other part: N-terminal 6xHis tag
The assay is described as follows: FAK1 HTRF assay. Type of assay: biochemical. As to the method:
Active FAK1 was prepared for use in the Homogeneous Time-Resolved Fluorescence (HTRF) assay. Briefly, N-terminal 6 His tagged recombinant human FAK1, from residue 692-end (GenBank accession no. L13616) was expressed by Bacculovirus in sf9 cells. […] A 1.6 mg/mL (45 μM) stock was used in the HTRF assay at a final concentration of 10 nM.
Gastrin precursor (tyr87) biotinylated peptide which contains the residues surrounding tyrosine 87 (EEAY*GWM) of gastrin precursor was obtained (Cell Signaling Tech, Item no. 1310, Lot 7). The peptide was provided at a stock concentration of 6 μM, and used a final concentration of 0.5 μM in the HTRF assay.
10 mM stock in 100 μL Enzyme assay buffer pH7.4 was prepared freshly and used at a final concentration of 10 μM in the assay.
Powders were dissolved in 100% DMSO to a final stock concentration of 10 mM. The volume needed (in μL) to add for 10 mM=mg powder is 10^5/MW of compound. The final compound concentration in the assay plate started at 10 μM.
Pfizer FAK inhibitor PF-562271 (N-methyl-N-(3-(((2-((2-oxoindolin-5-yl)amino)-5-(trifluoromethyl)pyrimidin-4-yl)amino)methyl)pyridin-2-yl)methanesulfonamide) was prepared as per the reported procedure from US Patent Publication No. 2005/256145A1.
Streptavidin-Allophycocyanin was obtained (Prozyme, Cat. No. PJ25S. SA-APC was provided at a stock concentration of 2.06 mg/mL, where APC concentration was 11.6 μM and the streptavidin concentration was 15.5 μM. SA-APC was used at a final concentration of 12 nM in the assay (based on streptavidin concentration).
This reagent was obtained from Perkin ElmerAD0068. Europium-W1024-PT-66 Anti Phospho Tyrosine Ab is a monoclonal IgG1 that recognizes phospho tyrosine peptide. 100 μg/mL stock was used at a final concentration of 0.1 nM in the assay.
• 1. The compound dilutions were made by TECAN liquid handler as per the scheme in FIG. 1. • 2. 16 μL of diluted compound was added to each well of the assay plate using TECAN liquid handler. • 3. 20 μL of substrate mix (biotinylated gastrin precursor) was added into each well of the assay plate manually. • 4. 10 μL of enzyme mix (FAK1) was added to each well except mins. • 5. The plate was incubated at rt for 45 min with shaking. • 6. The HTRF mix was prepared and 75 μL was added to the HTRF plate. • 7. After the incubation was over, 10 μL of the mixture was transferred to the HTRF assay plate and incubated for 45 min at rt with shaking. • 8. The readings were taken in Pherastar in HTRF mode (ext 337 nm, em 665 & 620 nm) • 9. The results were analyzed using Graphpad Prism® software after calculation the z factor signal window and % inhibition. • 10. The IC50 was calculated.
(In general: Time-resolved FRET reads energy transfer from a long-lived donor to a nearby acceptor.)

T1 sequence (Q05397 422-680 limits assumed): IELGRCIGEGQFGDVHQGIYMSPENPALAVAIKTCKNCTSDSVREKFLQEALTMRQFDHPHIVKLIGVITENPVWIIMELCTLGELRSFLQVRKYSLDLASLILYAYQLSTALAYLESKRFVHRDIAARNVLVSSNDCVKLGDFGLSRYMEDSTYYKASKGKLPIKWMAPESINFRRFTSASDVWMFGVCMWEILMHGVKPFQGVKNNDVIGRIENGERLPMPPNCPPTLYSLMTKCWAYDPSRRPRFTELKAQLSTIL

Take `CN(C)C1CCN(c2ccc(Nc3ncc4ccn(Cc5ccccc5N(C)S(C)(=O)=O)c4n3)cc2F)C1` (stereo not shown) [Example 590]: the IC50 (in general, the concentration that gives 50% inhibition) is less than 0.02 µM.

Turning to `C[C@@H]1CN(c2ccc(Nc3ncc4c(n3)N(S(=O)(=O)c3cccc5cccnc35)CC4(C)C)cc2)CCN1` [Example 470, (R)-5,5-dimethyl-N-(4-(3-methylpiperazin-1-yl)phenyl)-7-(quinolin-8-ylsulfonyl)-6,7-dihydro-5H-pyrrolo[2,3-d]pyrimidin-2-amine], the IC50 is less than 0.02 µM.

With `O=S(=O)(c1cccc2cccnc12)n1ccc2cnc(Nc3ccc(N4CCCC(CO)C4)cc3)nc21` (stereo not shown) [Example 425], the IC50 was less than 0.02 µM.

As to `COc1ccc(N(C)S(C)(=O)=O)c(Cn2ccc3cnc(Nc4ccc(N5CCC(N(C)C)CC5)c(OC)c4)nc32)c1` [Example 703], the IC50 was less than 0.02 µM.

Regarding `CN(c1ccc(C#N)cc1Cn1ccc2cnc(Nc3ccc(N4CCNCC4)cc3)nc21)S(C)(=O)=O` [Example 715], the IC50 is less than 0.02 µM.

Turning to `CN(C)C1CCN(c2ccc(Nc3ncc4ccn(Cc5ccccc5N(C)S(C)(=O)=O)c4n3)cc2)C1` (stereo not shown) [Example 571], the IC50 was less than 0.02 µM.

As for `C[C@H]1CN(C(=O)c2ccc(Nc3ncc4ccn(Cc5cccnc5N(C)S(C)(=O)=O)c4n3)cc2)CCN1` [Example 682], the IC50 was more than 1 µM.

With `CN1CCN(c2ccc(Nc3ncc4c(n3)N(S(=O)(=O)c3cccc5cccnc35)CC43CC3)cc2)CC1` [Example 499], the IC50 is less than 0.02 µM.

For `FC(F)(F)c1cccc(Nc2cc3c(ccn3Cc3cccnc3)cn2)c1` [Example 16], the IC50 was more than 1 µM.

With `O=S(=O)(c1ccc(Nc2cc3c(ccn3Cc3ccccc3OC(F)F)cn2)cc1)C(F)F` [Example 19], the IC50 was more than 1 µM.

Regarding `Cc1ccc(N(C)S(C)(=O)=O)c(Cn2ccc3cnc(Nc4ccc(C5CCNCC5)c(C)c4)nc32)c1` [Example 807], the IC50 is less than 0.02 µM.

`CC(=O)Nc1cccc(Nc2cc3c(cn2)c(C)nn3S(=O)(=O)c2ccccc2OC(F)(F)F)c1` [Example 88]: the IC50 is more than 1 µM.

Turning to `COc1cc(Nc2ncc3ccn(Cc4cc(C)ccc4N(C)S(C)(=O)=O)c3n2)ccc1N1CCNCC1` [Example 942], the IC50 is less than 0.02 µM.

Turning to `O=S(=O)(c1ccc(Nc2ncc3ccn(Cc4cccnc4)c3n2)cc1)C(F)F` [Example 17], the concentration for half-maximal inhibition (IC50) is more than 1 µM.

`Cn1cnc(S(=O)(=O)n2ccc3cnc(Nc4ccc(N5CCNCC5)cc4)nc32)c1` [Example 236]: the IC50 was more than 1 µM.

Turning to `CNc1ccc(Nc2ncc3ccn(Cc4cccnc4N(C)S(C)(=O)=O)c3n2)cc1` [Example 156], the IC50 was less than 0.02 µM.

With `CN(c1ccc(OC(F)F)cc1Cn1ccc2cnc(Nc3ccc(N4CCNCC4)cc3)nc21)S(C)(=O)=O` [Example 717], the IC50 was less than 0.02 µM.

`Cc1ccc(N(C)S(C)(=O)=O)c(Cn2ccc3cnc(Nc4ccc(C5CCNCC5)cc4)nc32)c1` [Example 789]: the IC50 was less than 0.02 µM.

On to `CN(c1ccccc1Cn1ccc2cnc(Nc3ccc(N4CCNCC4)c(F)c3)nc21)S(C)(=O)=O` [Example 438], for which the IC50 is less than 0.02 µM.

As for `CN(c1ccc(F)cc1Cn1ccc2cnc(Nc3ccc(N4CCN(CCO)CC4)cc3)nc21)S(C)(=O)=O` [Example 920], the IC50 is less than 0.02 µM.

Turning to `O=S(=O)(c1cccc2cccnc12)n1ncc2cnc(Nc3ccc(N4CCOCC4)cc3)nc21` [Example 409], the IC50 was less than 0.02 µM.

For `COc1cc(Nc2ncc3ccn(S(=O)(=O)c4cccc5cccnc45)c3n2)ccc1NC(=O)C1CC1` [Example 376], the IC50 was less than 0.02 µM.

For `CN1CCC(Oc2ccc(Nc3ncc4ccn(Cc5ccccc5N(C)S(C)(=O)=O)c4n3)cc2)CC1` [Example 531], the IC50 is less than 0.02 µM.

With `CN(c1ccc(F)cc1Cn1ccc2cnc(Nc3ccc(N4CCCC(N)C4)cc3)nc21)S(C)(=O)=O` (stereo not shown) [Example 800], the IC50 is less than 0.02 µM.

Consider `C[C@H]1CN(C)CCN1c1ccc(Nc2ncc3ccn(Cc4ccccc4N(C)S(C)(=O)=O)c3n2)cc1` [Example 495], for which the IC50 is less than 0.02 µM.

With `O=C1CCc2cc(Nc3ncc4cnn(Cc5cccnc5)c4n3)ccc2N1` [Example 14], the IC50 is more than 1 µM.

Take `O=C1CCc2cc(Nc3cc4nn(Cc5ccccc5OC(F)F)cc4cn3)ccc2N1` [Example 67]: the IC50 is more than 1 µM.

As for `CN(c1ccc(C(F)(F)F)cc1Cn1ccc2cnc(Nc3ccc(N4CCNCC4)cc3)nc21)S(C)(=O)=O` [Example 892], the IC50 was less than 0.02 µM.

Take `COc1cc(Nc2cc3c(ccn3S(=O)(=O)c3ccccc3C#N)cn2)ccc1N1CCN(C)CC1` [Example 492]: the IC50 was less than 0.02 µM.

For `CN1CCCN(c2ccc(Nc3cc4c(ccn4S(=O)(=O)c4ccccc4C#N)cn3)cc2)CC1` [Example 505], the IC50 was less than 0.02 µM.

Regarding `O=S(=O)(c1ccc(Nc2ncc3ccn(Cc4ccccc4OC(F)F)c3n2)cc1)C(F)F` [Example 9], the IC50 was more than 1 µM.

On to `O=C1CCc2cc(Nc3cc4c(ccn4S(=O)(=O)c4ccc(OC(F)(F)F)cc4)cn3)ccc2N1` [Example 48], for which the IC50 was more than 1 µM.

In the case of `CC1(C)CN(S(=O)(=O)c2cccc3cccnc23)c2nc(Nc3ccc(N4CCNCC4)cc3)ncc21` [Example 403], the IC50 was less than 0.02 µM.

Turning to `c1cncc(Cn2ccc3cnc(Nc4ccc5ncsc5c4)cc32)c1` [Example 15], the concentration for half-maximal inhibition (IC50) was more than 1 µM.

Consider `Cc1cnc(N(C)S(C)(=O)=O)c(Cn2ccc3cnc(Nc4ccc(N5CCC(N(C)C)CC5)c(C)c4)nc32)c1` [Example 981], for which the IC50 is less than 0.02 µM.

For the molecule `CN(c1ccccc1Cn1ncc2cnc(Nc3ccc(N4CCNCC4)cc3)cc21)S(C)(=O)=O` [Example 222], the IC50 is less than 0.02 µM.

As to `O=C1CCc2cc(Nc3cc4c(cn3)cnn4S(=O)(=O)c3cccc4cccnc34)ccc2N1` [Example 187], the IC50 is less than 0.02 µM.

On to `COc1ccc(N(C)S(C)(=O)=O)c(Cn2ccc3cnc(Nc4ccc(N5CCNCC5)cc4)nc32)c1` [Example 661], for which the IC50 was less than 0.02 µM.

Consider `C[C@H]1CN(c2ccc(Nc3ncc4ccn(Cc5cc(Cl)ccc5N(C)S(C)(=O)=O)c4n3)cc2)CCN1` [Example 899], for which the IC50 was less than 0.02 µM.

Consider `O=S(=O)(c1ccc(Nc2cc3c(ccn3Cc3cccnc3)cn2)cc1)C(F)F` [Example 8], for which the IC50 was more than 1 µM.

As for `O=C1CCc2cc(Nc3ncc4ccn(S(=O)(=O)c5ccc(OC(F)(F)F)cc5)c4n3)ccc2N1` [Example 41], the IC50 is more than 1 µM.

`CN(c1ccccc1Cn1ccc2cnc(Nc3ccc(OCCN4CCNCC4)cc3)nc21)S(C)(=O)=O` [Example 572]: the IC50 is less than 0.02 µM.

Turning to `C[C@H]1CN(c2ccc(Nc3ncc4ccn(Cc5cc(C(F)(F)F)ccc5N(C)S(C)(=O)=O)c4n3)cc2)CCN1` [Example 810], the IC50 was less than 0.02 µM.

`O=S(=O)(C1CCCC1)n1ccc2cnc(Nc3ccc(N4CCNCC4)cc3)nc21` [Example 238]: the IC50 is more than 1 µM.

On to `CS(=O)(=O)c1ccc(Nc2cc3c(ccn3S(=O)(=O)c3ccccc3OC(F)(F)F)cn2)cc1` [Example 57], for which the IC50 is more than 1 µM.

As to `Cc1ccc(N(C)S(C)(=O)=O)c(Cn2ccc3cnc(Nc4ccc(N5CCNCC5)c(F)c4)nc32)c1` [Example 941], the IC50 is less than 0.02 µM.

On to `Cc1ccc(N(C)S(C)(=O)=O)c(Cn2ccc3cnc(Nc4ccc(N5CCN[C@@H](C)C5)c(F)c4)nc32)c1` [Example 809], for which the IC50 was less than 0.02 µM.

Regarding `CC(=O)Nc1ccc(Nc2cc3c(cn2)c(C)nn3Cc2cccnc2N(C)S(C)(=O)=O)nc1` [Example 70], the IC50 was more than 1 µM.

For the molecule `CSc1cccc(Nc2cc3c(ccn3Cc3cccnc3)cn2)c1` [Example 13], the IC50 is more than 1 µM.

Regarding `C[C@@H]1CN(c2ccc(Nc3ncc4ccn(Cc5cc(F)ccc5N(C)S(C)(=O)=O)c4n3)cc2)CCN1` [Example 793], the IC50 is less than 0.02 µM.

Take `CC(=O)Nc1cccc(Nc2cc3c(ccn3-c3ccccn3)cn2)c1` [Example 37]: the IC50 is more than 1 µM.

For the molecule `CN(c1ccccc1Cn1ccc2cnc(Nc3ccc(N4CCNCC4)cc3)cc21)S(C)(=O)=O` [Example 325], the IC50 is less than 0.02 µM.

Regarding `COc1ccc(Nc2cc3c(ccn3S(=O)(=O)c3cccc(OC(F)(F)F)c3)cn2)cc1` [Example 53], the IC50 is more than 1 µM.

Regarding `O=S(=O)(c1ccccc1OC(F)(F)F)n1ncc2cnc(Nc3ccc4ncsc4c3)cc21` [Example 89], the IC50 was more than 1 µM.

With `CC(=O)Nc1cccc(Oc2ncc3ccn(Cc4cccnc4N(C)S(C)(=O)=O)c3n2)c1` [Example 124], the IC50 is more than 1 µM.
